Test results: patent US20190038571A1, “Orally Available Small Molecules to Inhibit the Function of the Complement System” (priority 2017, published 2019)

Assays:
[1] = in vivo; cited from earlier work
[2] = tested on: classical complement pathway; assay: sheep erythrocyte lysis assay (complement-mediated lysis of sensitized sheep erythrocytes in normal human serum); type: cell-based; conditions: for Inhibition of complement-mediated sheep erythrocyte lysis: 240 nM to 50 uM added to normal human serum, 37° C., 30 min, hemoglobin absorption at 412 nm
Method: FIG. 1. […] Various concentrations of pterostilbene, ranging from 240 nM to 50 uM were added to normal human serum, which was then incubated at 37° C. with sensitized sheep erythrocytes.
The lysis of the sheep erythrocytes is mediated by the classical complement pathway.
Various concentrations of pterostilbene, ranging from 240 nM to 50 uM were added to normal human serum, which was then incubated at 37° C. with sensitized sheep erythrocytes. After a 30 min incubation, the remaining unlysed erythrocytes were pelleted by centrifugation and the amount of hemoglobin released by cell lysis was quantified by absorption spectroscopy at wavelength of 412 nm. Inhibition of lysis indicates reduced complement activity. This is representative data from 3 separate experiments.

[3] = tested on: CA1 neurons; conditions: in vivo; cited from earlier work
[4] = target: T1, C5a receptor (Mus musculus, UniProt P30993); conditions: cited from earlier work
T1 sequence (P30993 1-351): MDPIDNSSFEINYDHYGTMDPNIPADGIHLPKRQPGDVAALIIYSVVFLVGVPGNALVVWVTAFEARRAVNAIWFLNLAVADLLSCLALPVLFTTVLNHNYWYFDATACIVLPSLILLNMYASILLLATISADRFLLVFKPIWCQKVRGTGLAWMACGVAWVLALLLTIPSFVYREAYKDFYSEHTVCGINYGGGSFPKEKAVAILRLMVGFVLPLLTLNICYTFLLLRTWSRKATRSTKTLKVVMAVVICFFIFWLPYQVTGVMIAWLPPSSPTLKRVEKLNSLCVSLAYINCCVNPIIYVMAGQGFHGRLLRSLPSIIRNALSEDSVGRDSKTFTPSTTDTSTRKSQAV

| Molecule | bioavailability [1] | Inhibition of complement-mediated sheep erythrocyte lysis [2] | concentration active to inhibit complement system ([2]; in human serum) | potency in the sheep erythrocyte lysis assay relative to the other stilbene ([2]; pterostilbene versus resveratrol) | protection of CA1 neurons from ischemia reperfusion damage [3] | beta amyloid induced loss of MAP-2 [4] |
| --- | --- | --- | --- | --- | --- | --- |
| COc1cc(/C=C/c2ccc(O)cc2)cc(OC)c1 [CCB-695, pterostilbene] | superior pharmacokinetics and bioavailability | inhibition of complement-mediated sheep erythrocyte lysis | lower than 1 μM | greater potency than resveratrol | – | – |
| Oc1ccc(C=Cc2cc(O)cc(O)c2)cc1 [Resveratrol] | poor bioavailability | active | – | – | protects CA1 neurons from ischemia reperfusion damage | – |
| PMX53 | – | – | – | – | – | blocked |
